Source: PubChem BioAssay (NCI)
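The compound was tested at five concentrations on cells cultured in 96-well plates, with a 48-hour exposure period. TGI denotes the concentration required for complete inhibition of growth.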

Assays:
Assay in all cases: inhibition of tumour cell growth, NCI panel, 48 h
PC-3 prostate = system: PC-3 prostate
OVCAR-4 ovarian = system: OVCAR-4 ovarian
COLO 205 colon = system: COLO 205 colon
OVCAR-5 ovarian = system: OVCAR-5 ovarian
HCT-15 colon = system: HCT-15 colon
HCT-116 colon = system: HCT-116 colon
OVCAR-3 ovarian = system: OVCAR-3 ovarian
SF-268 CNS = system: SF-268 CNS
BT-549 breast = system: BT-549 breast
EKVX NSCLC = system: EKVX NSCLC
K-562 leukemia = system: K-562 leukemia
KM12 colon = system: KM12 colon
NCI-H226 lung = system: NCI-H226 lung
A549 NSCLC = system: A549 NSCLC
DU-145 prostate = system: DU-145 prostate
MDA-N = system: MDA-N
MOLT-4 leukemia = system: MOLT-4 leukemia
UACC-62 melanoma = system: UACC-62 melanoma
SK-MEL-28 melanoma = system: SK-MEL-28 melanoma
SR leukemia = system: SR leukemia
MCF7 breast = system: MCF7 breast
SK-MEL-5 melanoma = system: SK-MEL-5 melanoma
NCI-H522 lung = system: NCI-H522 lung
CCRF-CEM leukemia = system: CCRF-CEM leukemia
U251 CNS = system: U251 CNS
UO-31 renal = system: UO-31 renal
NCI-H23 lung = system: NCI-H23 lung
SNB-75 CNS = system: SNB-75 CNS
SK-MEL-2 melanoma = system: SK-MEL-2 melanoma
CAKI-1 renal = system: CAKI-1 renal
SN12C renal = system: SN12C renal
SW-620 colon = system: SW-620 colon
NCI/ADR-RES ovarian = system: NCI/ADR-RES ovarian
RXF 393 renal = system: RXF 393 renal
MDA-MB-231 breast = system: MDA-MB-231 breast
IGROV1 ovarian = system: IGROV1 ovarian
NCI-H460 lung = system: NCI-H460 lung
TK-10 renal = system: TK-10 renal
HT29 colon = system: HT29 colon
HOP-62 NSCLC = system: HOP-62 NSCLC
UACC-257 melanoma = system: UACC-257 melanoma
SF-295 CNS = system: SF-295 CNS
ACHN renal = system: ACHN renal
HCC-2998 colon = system: HCC-2998 colon
LOX IMVI melanoma = system: LOX IMVI melanoma
M14 melanoma = system: M14 melanoma
SNB-19 CNS = system: SNB-19 CNS
T-47D breast = system: T-47D breast
MDA-MB-435 = system: MDA-MB-435
786-0 renal = system: 786-0 renal
SK-OV-3 ovarian = system: SK-OV-3 ovarian
HS 578T breast = system: HS 578T breast
RPMI-8226 leukemia = system: RPMI-8226 leukemia
HOP-92 NSCLC = system: HOP-92 NSCLC
MALME-3M melanoma = system: MALME-3M melanoma
A498 renal = system: A498 renal

CCC1(c2ccc(OC)c(OC)c2)CCN2C(=O)C(O)CC21 (configuration not stated)
TGI (PC-3 prostate): > 100 µM
TGI (OVCAR-4 ovarian): > 100 µM
TGI (COLO 205 colon): > 100 µM
TGI (OVCAR-5 ovarian): > 100 µM
TGI (HCT-15 colon): > 100 µM
TGI (HCT-116 colon): > 100 µM
TGI (OVCAR-3 ovarian): > 100 µM
TGI (SF-268 CNS): > 100 µM
TGI (BT-549 breast): > 100 µM
TGI (EKVX NSCLC): > 100 µM
TGI (K-562 leukemia): > 100 µM
TGI (KM12 colon): > 100 µM
TGI (NCI-H226 lung): > 100 µM
TGI (A549 NSCLC): > 100 µM
TGI (DU-145 prostate): > 100 µM
TGI (MDA-N): > 100 µM
TGI (MOLT-4 leukemia): > 100 µM
TGI (UACC-62 melanoma): > 100 µM
TGI (SK-MEL-28 melanoma): > 100 µM
TGI (SR leukemia): > 100 µM
TGI (MCF7 breast): > 100 µM
TGI (SK-MEL-5 melanoma): > 100 µM
TGI (NCI-H522 lung): > 100 µM
TGI (CCRF-CEM leukemia): > 100 µM
TGI (U251 CNS): > 100 µM
TGI (UO-31 renal): > 100 µM
TGI (NCI-H23 lung): > 100 µM
TGI (SNB-75 CNS): > 100 µM
TGI (SK-MEL-2 melanoma): > 100 µM
TGI (CAKI-1 renal): > 100 µM
TGI (SN12C renal): > 100 µM
TGI (SW-620 colon): > 100 µM
TGI (NCI/ADR-RES ovarian): > 100 µM
TGI (RXF 393 renal): > 100 µM
TGI (MDA-MB-231 breast): > 100 µM
TGI (IGROV1 ovarian): > 100 µM
TGI (NCI-H460 lung): > 100 µM
TGI (TK-10 renal): > 100 µM
TGI (HT29 colon): > 100 µM
TGI (HOP-62 NSCLC): > 100 µM
TGI (UACC-257 melanoma): > 100 µM
TGI (SF-295 CNS): > 100 µM
TGI (ACHN renal): > 100 µM
TGI (HCC-2998 colon): > 100 µM
TGI (LOX IMVI melanoma): > 100 µM
TGI (M14 melanoma): > 100 µM
TGI (SNB-19 CNS): > 100 µM
TGI (T-47D breast): > 100 µM
TGI (MDA-MB-435): > 100 µM
TGI (786-0 renal): > 100 µM
TGI (SK-OV-3 ovarian): > 100 µM

COc1ccc(-c2oc3cc(OC)ccc3c(=O)c2O)cc1
TGI (PC-3 prostate): > 100 µM
TGI (OVCAR-4 ovarian): > 31.6 µM
TGI (COLO 205 colon): > 100 µM
TGI (HCT-15 colon): > 100 µM
TGI (HCT-116 colon): > 100 µM
TGI (HS 578T breast): 5.53 µM
TGI (BT-549 breast): 4.23 µM
TGI (EKVX NSCLC): > 100 µM
TGI (RPMI-8226 leukemia): > 31.6 µM
TGI (MDA-N): > 100 µM
TGI (SK-MEL-28 melanoma): > 31.6 µM
TGI (MCF7 breast): > 31.6 µM
TGI (SK-MEL-5 melanoma): > 100 µM
TGI (U251 CNS): > 100 µM
TGI (HOP-92 NSCLC): > 31.6 µM
TGI (MALME-3M melanoma): > 31.6 µM
TGI (CAKI-1 renal): 8.33 µM
TGI (RXF 393 renal): 42.6 µM
TGI (MDA-MB-231 breast): > 100 µM
TGI (A498 renal): > 100 µM
TGI (IGROV1 ovarian): > 31.6 µM
TGI (NCI-H460 lung): > 100 µM
TGI (TK-10 renal): > 100 µM
TGI (HT29 colon): > 100 µM
TGI (UACC-257 melanoma): > 100 µM
TGI (SF-295 CNS): > 100 µM
TGI (LOX IMVI melanoma): > 100 µM
TGI (M14 melanoma): > 31.6 µM
TGI (SNB-19 CNS): > 100 µM
TGI (MDA-MB-435): > 31.6 µM
TGI (786-0 renal): > 100 µM
